Data taken from PMC10342305, “Identification of N-Acyl Hydrazones as New Non-Zinc-Binding MMP-13 Inhibitors by Structure-Based Virtual Screening Studies and Chemical Optimization” (International Journal of Molecular Sciences, 2023).

How the values were obtained:
MMP-1 = molecular target: T1, MMP-1 (Homo sapiens, UniProt P03956); test: Fluorometric enzyme inhibition assay on MMP-1
T1 sequence (P03956 100-469): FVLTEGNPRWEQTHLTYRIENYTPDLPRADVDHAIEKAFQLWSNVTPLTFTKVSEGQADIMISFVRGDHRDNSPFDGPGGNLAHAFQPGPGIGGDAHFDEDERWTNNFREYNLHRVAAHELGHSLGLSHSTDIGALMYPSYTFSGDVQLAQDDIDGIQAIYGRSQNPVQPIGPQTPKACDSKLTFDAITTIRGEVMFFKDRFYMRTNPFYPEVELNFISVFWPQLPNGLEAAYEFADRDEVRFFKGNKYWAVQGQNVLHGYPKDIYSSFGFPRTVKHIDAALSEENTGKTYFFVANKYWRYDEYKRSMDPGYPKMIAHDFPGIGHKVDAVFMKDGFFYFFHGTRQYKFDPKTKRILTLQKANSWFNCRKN

MMP-14 = molecular target: T2, MMP-14 (Homo sapiens, UniProt P50281); test: Fluorometric enzyme inhibition assay on MMP-14 catalytic domain; assay type: biochemical; conditions: mean ± SD of three independent experiments
T2 construct: Recombinant human MMP-14 catalytic domain; gift from Prof; Gillian Murphy (Department of Oncology, University of Cambridge, UK)
Procedure: (§1) Recombinant human MMP-14 catalytic domain was a kind gift from Prof. Gillian Murphy (Department of Oncology, University of Cambridge, UK). Pro-MMP-1, pro-MMP-2, pro-MMP-9, and pro-MMP-13 were purchased from Merck Millipore (Burlington, MA, USA). p-Aminophenylmercuric acetate (APMA) was from Sigma-Aldrich (St. Louis, MO, USA).
(§2) For assay measurements, the purchased compound stock solutions (10 mM in DMSO) were further diluted for each MMP in the fluorometric assay buffer (FAB: Tris 50 mM, pH = 7.5, NaCl 150 mM, CaCl2 10 mM, Brij 35 0.05%, and DMSO 1%), following the protocol already reported. […] The assays were performed in triplicate with a total volume of 200 μL per well in 96-well microtitre plates (Corning, black, NBS, Turin, Italy). The MMP inhibition activity was expressed in relative fluorescent units (RFU). The percentage of inhibition was calculated from control reactions without the inhibitor. The inhibitory effect of the tested compounds was routinely estimated at a concentration of 100 μM on MMP-13. […] Results were analyzed using SoftMax Pro software version 5.4.3 (Molecular Devices, Sunnyvale, CA, USA) and Prism Software version 5.0 (GraphPad Software, Inc., La Jolla, CA, USA).

MMP-9 = MMP-9 (Homo sapiens, UniProt P14780); test: Fluorometric enzyme inhibition assay on MMP-9
MMP-2 = molecular target: T3, MMP-2 (Homo sapiens, UniProt P08253); test: Fluorometric enzyme inhibition assay on MMP-2
T3 sequence (P08253 110-660): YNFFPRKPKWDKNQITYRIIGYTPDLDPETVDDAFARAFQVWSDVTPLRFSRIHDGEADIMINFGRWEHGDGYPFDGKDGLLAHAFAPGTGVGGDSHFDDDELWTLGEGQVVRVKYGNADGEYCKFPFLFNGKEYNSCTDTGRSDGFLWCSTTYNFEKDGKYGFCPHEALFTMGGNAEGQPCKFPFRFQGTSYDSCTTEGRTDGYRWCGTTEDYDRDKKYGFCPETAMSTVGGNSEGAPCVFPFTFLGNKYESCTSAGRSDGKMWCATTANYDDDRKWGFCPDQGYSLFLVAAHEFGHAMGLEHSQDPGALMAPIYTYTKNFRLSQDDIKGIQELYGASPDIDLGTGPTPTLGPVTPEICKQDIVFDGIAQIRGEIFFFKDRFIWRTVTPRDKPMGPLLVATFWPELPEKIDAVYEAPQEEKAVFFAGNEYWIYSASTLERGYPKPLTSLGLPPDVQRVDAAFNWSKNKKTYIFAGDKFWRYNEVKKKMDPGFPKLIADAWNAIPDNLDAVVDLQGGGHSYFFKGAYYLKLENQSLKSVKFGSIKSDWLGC

MMP-13 = molecular target: T4, MMP-13 (Homo sapiens, UniProt P45452); test: Fluorometric enzyme inhibition assay on MMP-13; assay type: biochemical; conditions: mean ± SD of three independent experiments
T4 construct: purchased Merck Millipore (Burlington, MA, USA)
Excerpt: ARP100 [26], a hydroxamate-based MMP inhibitor previously developed by our research group, was used in the same assay conditions as the reference compound.
as §1, §2

Chain of MMP-9 (P14780 107-707 limits assumed): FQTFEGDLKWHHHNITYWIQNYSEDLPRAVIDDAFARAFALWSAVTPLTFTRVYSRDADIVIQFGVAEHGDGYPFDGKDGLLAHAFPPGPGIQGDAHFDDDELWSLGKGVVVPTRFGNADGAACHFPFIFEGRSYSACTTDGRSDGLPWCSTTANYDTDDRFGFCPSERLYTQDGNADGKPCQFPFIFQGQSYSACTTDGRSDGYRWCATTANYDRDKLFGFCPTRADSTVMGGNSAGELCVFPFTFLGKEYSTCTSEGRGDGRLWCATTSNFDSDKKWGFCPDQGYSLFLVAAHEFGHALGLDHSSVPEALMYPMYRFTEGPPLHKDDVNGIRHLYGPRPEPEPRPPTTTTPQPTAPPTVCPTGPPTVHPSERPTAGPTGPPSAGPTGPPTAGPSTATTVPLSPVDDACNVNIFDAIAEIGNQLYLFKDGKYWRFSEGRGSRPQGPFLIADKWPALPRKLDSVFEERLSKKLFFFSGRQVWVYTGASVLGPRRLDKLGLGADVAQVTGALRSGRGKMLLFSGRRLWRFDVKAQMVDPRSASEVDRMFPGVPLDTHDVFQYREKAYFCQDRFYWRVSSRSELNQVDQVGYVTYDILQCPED

An IC50 (MMP-1) of 99 ± 8 µM, an IC50 (MMP-14) of 94 ± 5.5 µM and an IC50 (MMP-9) of 66 ± 4.6 µM were found for `N#C/C(=C\c1cn(Cc2ccc(Cl)cc2)c2ccccc12)c1nn(-c2ccccc2)c(N)c1C#N` [Compound 11] in this work. For the same compound, the IC50 (MMP-2) was 60 ± 4.6 µM.

An IC50 (MMP-1) of 75 ± 4 µM, an IC50 (MMP-14) of 67 ± 4.6 µM and an IC50 (MMP-9) of 72 ± 4.8 µM were found for `O=C(COC(=O)c1ccccc1Sc1ccc([N+](=O)[O-])cc1)c1ccc(-c2ccccc2)cc1` [Compound 12] in this work. It also gave an IC50 (MMP-2) of 47 ± 1.6 µM.

An IC50 (MMP-1) of 91 ± 0.8 µM, an IC50 (MMP-14) of 63 ± 5.4 µM and an IC50 (MMP-9) of 68 ± 3 µM were found for `C/C(=N\NC(=O)Cc1ccc([N+](=O)[O-])cc1)c1ccc(NC(=O)c2ccc(Br)o2)cc1` [Compound 13, (E)-5-bromo-N-(4-(1-(2-(2-(4-nitrophenyl)acetyl)hydrazineylidene)ethyl)phenyl)furan-2-carboxamide] in this work. For the same compound, the IC50 (MMP-2) was 99 ± 6 µM.

A melting point of 255 to 258 °C and an IC50 (MMP-13) greater than 100 µM were found for `C/C(=N\NC(=O)Cc1ccc([N+](=O)[O-])cc1)c1ccc(NC(=O)c2ccc(S(N)(=O)=O)o2)cc1` [Compound 13a] in this work.

A melting point of 238 to 241 °C and an IC50 (MMP-13) greater than 100 µM were found for `C/C(=N\NC(=O)Cc1ccc([N+](=O)[O-])cc1)c1ccc(NC(=O)c2ccc(CO)o2)cc1` [Compound 13b, (E)-5-(hydroxymethyl)-N-(4-(1-(2-(2-(4nitrophenyl)acetyl)hydrazineylidene)ethyl)phenyl) furan-2-carboxamide] in this work.

A melting point of 277 to 279 °C was found for `O=C(Cc1ccc([N+](=O)[O-])cc1)N/N=C/c1ccc(NC(=O)c2ccc(Br)o2)cc1` [Compound 13c, (E)-5-bromo-N-(4-((2-(2-(4-nitrophenyl)acetyl)hydrazineylidene)methyl)phenyl)furan-2-carboxamide] in this work.

A melting point of 246 to 248 °C and an IC50 (MMP-13) of 40 ± 3.5 µM were found for `O=C(Cc1ccc([N+](=O)[O-])cc1)N/N=C/c1ccc(NC(=O)c2ccc(CO)o2)cc1` [Compound 13d, (E)-5-(hydroxymethyl)-N-(4-((2-(2-(4-nitrophenyl)acetyl)hydrazineylidene)methyl)phenyl) furan-2-carboxamide] in this work.

A melting point of 252 to 255 °C and an IC50 (MMP-13) greater than 100 µM were found for `C/C(=N\NC(=O)Cc1ccc(-c2nc(C)no2)cc1)c1ccc(NC(=O)c2ccc(Br)o2)cc1` [Compound 13e, (E)-5-bromo-N-(4-(1-(2-(2-(4-(3-methyl-1,2,4-oxadiazol-5-yl)phenyl)acetyl)hydrazineylidene)ethyl)phenyl)furan-2-carboxamide] in this work.

A melting point of 243 to 246 °C was found for `C/C(=N\NC(=O)Cc1ccc(-c2nc(C)no2)cc1)c1ccc(NC(=O)c2ccc(CO)o2)cc1` [Compound 13f, (E)-5-(hydroxymethyl)-N-(4-(1-(2-(2-(4-(3-methyl-1,2,4-oxadiazol-5-yl)phenyl)acetyl)hydrazineylidene)ethyl)phenyl)furan-2-carboxamide] in this work.

A melting point of 232 to 235 °C was found for `Cc1noc(-c2ccc(CC(=O)N/N=C/c3ccc(NC(=O)c4ccc(CO)o4)cc3)cc2)n1` [Compound 13g, (E)-5-(hydroxymethyl)-N-(4-((2-(2-(4-(3-methyl-1,2,4-oxadiazol-5-yl)phenyl)acetyl) hydrazono)methyl)phenyl)furan-2-carboxamide] in this work.

A melting point of 292 to 295 °C was found for `C/C(=N\NC(=O)Cc1ccc(C(=O)O)cc1)c1ccc(NC(=O)c2ccc(Br)o2)cc1` [Compound 13h, (E)-4-(2-(2-(1-(4-(5-bromofuran-2-carboxamido)phenyl)ethylidene)hydrazineyl)-2-oxoethyl)benzoic acid] in this work.

A melting point of 232 to 235 °C was found for `C/C(=N\NC(=O)Cc1ccc(C(=O)O)cc1)c1ccc(NC(=O)c2ccc(CO)o2)cc1` [Compound 13i, (E)-4-(2-(2-(1-(4-(5-(hydroxymethyl)furan-2-carboxamido)phenyl)ethylidene)hydrazineyl)-2-oxoethyl)benzoic acid] in this work.

A melting point of 307 to 310 °C was found for `O=C(Cc1ccc(C(=O)O)cc1)N/N=C/c1ccc(NC(=O)c2ccc(Br)o2)cc1` [Compound 13l, (E)-4-(2-(2-(4-(5-bromofuran-2-carboxamido)benzylidene)hydrazineyl)-2-oxoethyl)benzoic acid] in this work.

An IC50 (MMP-1) of 177 ± 20 µM, an IC50 (MMP-14) greater than 200 µM and an IC50 (MMP-9) of 50 ± 3.2 µM were found for `O=C(Cc1ccc(C(=O)O)cc1)N/N=C/c1ccc(CNC(=O)c2ccc(Br)o2)cc1` [Compound 13m, (E)-4-(2-(2-(4-((5-bromofuran-2-carboxamido)methyl)benzylidene)hydrazineyl)-2-oxoethyl)benzoic acid] in this work. The IC50 (MMP-2) was 3.6 ± 0.4 µM.

A melting point of 262 to 265 °C was found for `O=C(Cc1ccc(-c2nnn[nH]2)cc1)N/N=C/c1ccc(NC(=O)c2ccc(Br)o2)cc1` [Compound 13n, (E)-N-(4-((2-(2-(4-(1H-tetrazol-5-yl)phenyl)acetyl)hydrazineylidene)methyl)phenyl)-5-bromofuran-2-carboxamide] in this work.

A melting point of 245 to 248 °C was found for `O=C(Cc1ccc(-c2nnn[nH]2)cc1)N/N=C/c1ccc(CNC(=O)c2ccc(Br)o2)cc1` [Compound 13o, (E)-N-(4-((2-(2-(4-(1H-tetrazol-5-yl)phenyl)acetyl)hydrazineylidene)methyl)benzyl)-5-bromofuran-2-carboxamide] in this work.
